Key:
Format in all cases: biochemical
[1] = biological target: EGFR (Homo sapiens, UniProt P00533); experiment: ADP-Glo in vitro kinase assay
[2] = biological target: MET (Homo sapiens, UniProt P08581); experiment: ADP-Glo in vitro kinase assay
[3] = biological target: AKT1 (Homo sapiens, UniProt P31749); experiment: ADP-Glo in vitro kinase assay; relative activity left at […]
Chain of AKT1 (P31749 whole entry): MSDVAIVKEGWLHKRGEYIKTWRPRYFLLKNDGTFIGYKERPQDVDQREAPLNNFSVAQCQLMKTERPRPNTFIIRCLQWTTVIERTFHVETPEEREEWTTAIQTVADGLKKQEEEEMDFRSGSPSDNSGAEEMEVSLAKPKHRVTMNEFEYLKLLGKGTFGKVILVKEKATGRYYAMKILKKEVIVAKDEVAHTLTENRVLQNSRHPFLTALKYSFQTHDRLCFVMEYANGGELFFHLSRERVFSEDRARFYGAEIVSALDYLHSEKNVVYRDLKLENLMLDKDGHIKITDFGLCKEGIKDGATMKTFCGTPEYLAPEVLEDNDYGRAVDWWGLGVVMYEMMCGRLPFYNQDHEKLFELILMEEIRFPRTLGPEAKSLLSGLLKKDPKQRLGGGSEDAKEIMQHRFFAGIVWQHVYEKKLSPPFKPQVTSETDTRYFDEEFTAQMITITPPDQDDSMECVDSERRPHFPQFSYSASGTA

Chain of MET (P08581 25-307): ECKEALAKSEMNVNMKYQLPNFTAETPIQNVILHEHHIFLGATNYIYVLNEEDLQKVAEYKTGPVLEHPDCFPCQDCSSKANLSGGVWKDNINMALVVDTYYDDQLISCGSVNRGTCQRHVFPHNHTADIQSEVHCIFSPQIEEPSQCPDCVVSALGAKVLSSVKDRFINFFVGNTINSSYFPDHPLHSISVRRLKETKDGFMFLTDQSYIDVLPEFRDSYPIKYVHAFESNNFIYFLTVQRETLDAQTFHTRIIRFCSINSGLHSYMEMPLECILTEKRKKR
Chain of MET (P08581 308-1390): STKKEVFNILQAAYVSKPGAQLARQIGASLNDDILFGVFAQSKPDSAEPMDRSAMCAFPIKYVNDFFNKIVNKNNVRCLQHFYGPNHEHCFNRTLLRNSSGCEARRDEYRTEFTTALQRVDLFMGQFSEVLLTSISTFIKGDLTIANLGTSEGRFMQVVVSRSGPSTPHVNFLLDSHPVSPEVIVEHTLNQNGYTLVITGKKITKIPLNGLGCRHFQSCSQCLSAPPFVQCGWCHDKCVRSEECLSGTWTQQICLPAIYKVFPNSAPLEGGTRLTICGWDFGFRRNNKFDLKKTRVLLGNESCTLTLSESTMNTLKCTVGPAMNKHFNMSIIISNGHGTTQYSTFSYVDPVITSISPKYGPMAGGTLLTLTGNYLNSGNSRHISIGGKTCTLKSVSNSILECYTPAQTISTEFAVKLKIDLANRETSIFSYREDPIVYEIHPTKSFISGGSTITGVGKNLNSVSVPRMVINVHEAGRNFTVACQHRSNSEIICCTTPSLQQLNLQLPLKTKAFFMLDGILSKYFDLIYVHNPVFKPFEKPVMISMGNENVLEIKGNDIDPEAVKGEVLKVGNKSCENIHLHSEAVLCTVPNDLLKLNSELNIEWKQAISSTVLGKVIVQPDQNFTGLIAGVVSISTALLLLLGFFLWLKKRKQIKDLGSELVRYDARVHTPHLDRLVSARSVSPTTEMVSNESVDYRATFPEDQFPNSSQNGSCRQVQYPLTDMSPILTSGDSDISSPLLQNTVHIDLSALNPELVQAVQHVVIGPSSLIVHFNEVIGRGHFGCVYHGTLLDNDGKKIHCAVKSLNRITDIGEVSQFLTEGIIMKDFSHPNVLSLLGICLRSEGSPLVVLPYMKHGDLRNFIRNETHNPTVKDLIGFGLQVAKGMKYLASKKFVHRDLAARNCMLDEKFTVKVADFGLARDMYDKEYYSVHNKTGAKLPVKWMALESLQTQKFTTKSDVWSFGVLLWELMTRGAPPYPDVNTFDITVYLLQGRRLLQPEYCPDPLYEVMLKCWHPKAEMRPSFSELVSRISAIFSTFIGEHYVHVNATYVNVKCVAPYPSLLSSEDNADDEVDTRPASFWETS
Chain of EGFR (P00533 25-1210): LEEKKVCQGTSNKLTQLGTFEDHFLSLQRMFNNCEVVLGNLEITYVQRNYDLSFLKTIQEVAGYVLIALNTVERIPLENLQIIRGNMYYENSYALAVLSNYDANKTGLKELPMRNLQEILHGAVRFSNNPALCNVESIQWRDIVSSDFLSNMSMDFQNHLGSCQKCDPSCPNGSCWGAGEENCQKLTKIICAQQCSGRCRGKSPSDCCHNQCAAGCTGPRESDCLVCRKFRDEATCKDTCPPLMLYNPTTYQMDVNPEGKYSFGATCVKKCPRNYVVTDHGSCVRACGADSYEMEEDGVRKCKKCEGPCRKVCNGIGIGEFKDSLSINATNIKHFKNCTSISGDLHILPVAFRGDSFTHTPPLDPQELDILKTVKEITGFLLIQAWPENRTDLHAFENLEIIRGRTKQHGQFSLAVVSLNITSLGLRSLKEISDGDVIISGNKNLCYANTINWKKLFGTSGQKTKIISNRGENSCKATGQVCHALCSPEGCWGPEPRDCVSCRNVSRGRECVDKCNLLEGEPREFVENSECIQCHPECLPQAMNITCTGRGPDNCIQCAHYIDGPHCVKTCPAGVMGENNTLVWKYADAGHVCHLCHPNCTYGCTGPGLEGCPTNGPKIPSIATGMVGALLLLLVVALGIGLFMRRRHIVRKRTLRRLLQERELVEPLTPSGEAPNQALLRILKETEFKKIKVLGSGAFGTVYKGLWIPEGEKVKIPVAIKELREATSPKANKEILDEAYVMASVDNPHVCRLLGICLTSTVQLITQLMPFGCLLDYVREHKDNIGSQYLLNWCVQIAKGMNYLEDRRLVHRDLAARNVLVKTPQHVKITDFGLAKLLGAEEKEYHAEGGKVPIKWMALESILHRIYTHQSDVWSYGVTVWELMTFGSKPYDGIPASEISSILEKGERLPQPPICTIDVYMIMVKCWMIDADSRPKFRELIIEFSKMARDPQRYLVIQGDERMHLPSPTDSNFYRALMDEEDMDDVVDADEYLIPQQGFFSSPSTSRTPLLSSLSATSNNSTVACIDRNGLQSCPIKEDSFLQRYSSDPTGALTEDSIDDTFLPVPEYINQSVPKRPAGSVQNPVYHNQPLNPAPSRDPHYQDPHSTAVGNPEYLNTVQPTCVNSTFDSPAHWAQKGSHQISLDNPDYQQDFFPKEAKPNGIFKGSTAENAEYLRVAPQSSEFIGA

`CC(=O)O[C@H]1CC[C@]2(C)C3=CC[C@]4(C)[C@H]5[C@H](O)C[C@@H](C(C)C)[C@]5(C)CC[C@@]4(C)[C@@H]3[C@@H](O)C[C@H]2C1(C)C` [ARu-B, 3-O-acetylrubiarbonol B] gave an IC50 [1] of 3 µM, an IC50 [2] of 1.7 µM and an activity at 8 µM [3] of 58%.
With `CC(C)[C@@H]1C[C@@H](O)[C@H]2[C@@]1(C)CC[C@@]1(C)[C@H]3C(=CC[C@]21C)[C@@]1(C)CC[C@H](O)C(C)(C)[C@@H]1C[C@@H]3O` [Ru-B, rubiarbonol B] the IC50 [1] was 7.6 µM, the IC50 [2] was 4.2 µM and the activity at 8 µM [3] was 67.1%.

From PMC12416685, “3-O-acetylrubiarbonol B preferentially targets EGFR and MET over rubiarbonol B to inhibit NSCLC cell growth” (PLOS One, 2025)
